The text below walks through data of publication PMC8434415, “Chromone Derivatives with α-Glucosidase Inhibitory Activity from the Marine Fungus Penicillium thomii Maire” (Molecules, 2021).

The nature of data set [1]: DPPH radical scavenging (antioxidant) test. The following applies: for Antioxidant % Inhibition (1000 μM): compound at 1000 μM. The method, then:
The DPPH scavenging was assayed following the procedures in our recent published paper. The DPPH radical scavenging test was performed in 96-well microplates. Then, 20 μL of samples at a concentration of 10 mM in MeOH were added to 180 μL (150 μmol/L) DPPH solution. After 30 min of light avoidance, absorbance at 517 nm using a Microplate Reader (Tecan, Switzerland) was measured and the percentage of activity was calculated. All assays were performed in three replicates, and vitamin C was used as a positive control. Percent inhibition was calculated by the following equation: Inhibition (%) = ((Absorbance of control − Absorbance of test)/Absorbance of control)); IC50 concentrations are calculated using concentration vs. percent inhibition values.

Data set [2] addresses T1, α-glucosidase from Saccharomyes cerevisiae (Saccharomyces cerevisiae, UniProt P53341).
T1 construct: purchased Sigma-Aldrich (St. Louis, MO, USA)
The data set can be described thus: α-glucosidase inhibitory assay (PNPG substrate). The class given is biochemical. The conditions noted are these: for inhibition at 667 µM: compound at 667 μM; for IC50: tested between 0.2 and 2 mM, three replicates. The method, then: The α-glucosidase inhibitory effect was performed as follows. The 0.2 U of α-glucosidase from Saccharomyes cerevisiae, purchased from Sigma-Aldrich (St. Louis, MO, USA), was diluted to 0.067 M phosphate buffer consisting of Na2HPO4·12H2O and KH2PO4 (pH 6.8). The assay was conducted in a 60 μL reaction system containing 20 μL of diluted enzyme solution and 20 μL of DMSO or sample (dissolved in DMSO). After 10 min of incubation in the 96-well plates at 37 °C, 20 μL of 4 mM PNPG (4-nitrophenyl-α-D-glucopyranoside, Aladdin, Shanghai, China) was added as substrate to start the enzymatic reaction. The plate was incubated for an additional 20 min at 37 °C, and the reaction was quenched by adding 60 μL of 0.2 M Na2CO3. The final concentrations of tested compounds were between 0.2 and 2 mM. The optical density (OD) was measured at an absorbance wavelength of 405 nm using a Microplate Reader (Tecan, Switzerland). […] Percent inhibition was calculated by the following equation: Inhibition (%) = ((Absorbance of control − Absorbance of test)/Absorbance of control)); IC50 concentrations are calculated using concentration vs. percent inhibition values.

The next data set relates to α-glucosidase. Also noted: method as in PMID 25044593. The following applies: cited from earlier work.
Another data set deals with liver X receptor α. On the set-up: method as in PMID 33932772. The conditions noted are these: read-out: dissociation equilibrium constant; cited from earlier work.
Data set [3] relates to several carcinoma cell lines. The following applies: cited from earlier work.

T1 sequence (P53341 whole entry): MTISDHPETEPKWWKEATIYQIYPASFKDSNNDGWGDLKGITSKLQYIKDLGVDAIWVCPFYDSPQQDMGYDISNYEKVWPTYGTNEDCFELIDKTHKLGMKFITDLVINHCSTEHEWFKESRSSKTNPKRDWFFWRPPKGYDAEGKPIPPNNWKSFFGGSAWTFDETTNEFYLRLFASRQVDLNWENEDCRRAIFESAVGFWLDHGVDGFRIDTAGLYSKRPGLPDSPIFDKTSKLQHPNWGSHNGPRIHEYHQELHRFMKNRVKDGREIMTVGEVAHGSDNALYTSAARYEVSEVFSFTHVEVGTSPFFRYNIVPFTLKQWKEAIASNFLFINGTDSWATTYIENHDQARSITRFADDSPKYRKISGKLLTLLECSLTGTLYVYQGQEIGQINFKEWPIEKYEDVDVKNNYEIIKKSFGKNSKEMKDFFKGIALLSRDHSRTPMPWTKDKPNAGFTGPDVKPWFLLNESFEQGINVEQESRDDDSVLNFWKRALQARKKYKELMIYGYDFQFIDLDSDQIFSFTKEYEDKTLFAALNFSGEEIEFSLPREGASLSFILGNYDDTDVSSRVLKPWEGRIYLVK

One may read the inhibition as the relative decrease from the control value, in per cent. For the molecule `COc1cc(OC)c2c(=O)cc(CCCCC(O)CC(=O)O)oc2c1` (centres unmarked) [Compound 4, Penithochromone P], the “Antioxidant % Inhibition (1000 μM)” value in data set [1] worked out at 12.2%. Further, the inhibition at 667 µM in data set [2] is -9.72%.
By IC50 is commonly meant the point on the concentration scale where inhibition reaches its midpoint. Take `COc1cc(O)c2c(=O)cc(CC(O)CCCCCCC(=O)O)oc2c1` (centres unmarked) [Compound 7, Penithochromone S]: in data set [1], the “Antioxidant % Inhibition (1000 μM)” value is 23.6%. Further, in data set [2], the inhibition at 667 µM was found to be 25.2% and the 50% inhibitory concentration (IC50) came out at 917 ± 8 µM.
Consider `COC(=O)CC(O)CCCCc1cc(=O)c2c(OC)cc(OC)cc2o1` (centres unmarked) [Compound 5, Penithochromone Q], for which the “Antioxidant % Inhibition (1000 μM)” value in data set [1] amounted to 11.2%. Further, in data set [2], the inhibition at 667 µM was 1.41%.
For `O=C1O[C@H]([C@@H](O)CO)C(O)=C1O` [Vitamin C, vitamin C, reference compound], in data set [1], the concentration for half-maximal inhibition (IC50) stood at 26.7 µM and the “Antioxidant % Inhibition (1000 μM)” value came to 96.4%.
For the molecule `COc1cc(OC)c2c(=O)cc(CCCC(=O)O)oc2c1` [4-(5,7-dimethoxy-4-oxo-4H-chromen-2-yl)butanoic acid], the “inhibitory activity on α-glucosidase (in words)” value in the data set on α-glucosidase was “moderate inhibitory activity”.
On to `COc1cc(O)c2c(=O)cc(CCC[C@@H]3CCC(=O)O3)oc2c1` [Compound 1, Penithochromone M], for which the “Antioxidant % Inhibition (1000 μM)” value in data set [1] came to 7.24%. For the same molecule, in data set [2], the inhibition at 667 µM is -3.43%.
As to Pestalotiochromone A, on liver X receptor α, the Kd is 6.2 µM.
As to `O=C(O)CC(O)CCCCc1cc(=O)c2c(O)cc(O)cc2o1` (centres unmarked) [Compound 6, Penithochromone R], in data set [1], the “Antioxidant % Inhibition (1000 μM)” value stood at 33.8%. Besides, in data set [2], the inhibition at 667 µM was 27.3% and the IC50 turned out to be 842 ± 11 µM.
For `COc1cc(O)c2c(=O)cc(CC(O)CCCC/C=C/C(=O)O)oc2c1` (centres unmarked) [Compound 8, Penithochromone T] the same measures were 19.3%, 41.7% and 1020 ± 22 µM.
Take `COC(=O)[C@H](O)C[C@](O)(C(=O)OC)[C@H]1Cc2c(oc3cc(C)cc(O)c3c2=O)S1` [oxalicumone B, oxalicumones B]: the IC50 in data set [3] was under 10 µM.
As for `COC(=O)CC(O)(C(=O)OC)[C@@H]1Cc2c(oc3cc(C)cc(O)c3c2=O)S1` (some centres unmarked) [oxalicumone E, oxalicumones E], the concentration for half-maximal inhibition (IC50) in data set [3] is under 10 µM.
In the case of `COC(=O)C(O)(C[C@@H](O)C(=O)O)[C@@H]1Cc2c(oc3cc(C)cc(O)c3c2=O)S1` (some centres unmarked) [oxalicumone D, oxalicumones D], the IC50 in data set [3] is under 10 µM.
Consider `C[C@H]1O[C@H](O[C@H]2[C@H](O)[C@@H](O)[C@@H](O[C@H]3[C@H](O)[C@@H](O)C(O)O[C@@H]3CO)O[C@@H]2CO)[C@H](O)[C@@H](O)[C@@H]1N[C@H]1C=C(CO)[C@@H](O)[C@H](O)[C@H]1O` (some centres unmarked) [Acarbose, acarbose, reference compound], for which the inhibition at 667 µM in data set [2] was found to be 27.7%.
Turning to `COC(=O)CCCCC(O)Cc1cc(=O)c2c(O)cc(OC)cc2o1` (centres unmarked) [Compound 3, Penithochromone O], in data set [1], the “Antioxidant % Inhibition (1000 μM)” value worked out at 20.4%. Further, the inhibition at 667 µM in data set [2] turned out to be 23.8%.
Regarding `O=C(O)CCCCC(O)Cc1cc(=O)c2c(O)cc(O)cc2o1` (centres unmarked) [Compound 2, Penithochromone N], in data set [1], inhibition was half-maximal at 1970 ± 156 µM (IC50) and the “Antioxidant % Inhibition (1000 μM)” value stood at 35.7%. In addition, the inhibition at 667 µM in data set [2] is 15.1%.
In the case of `COC(=O)[C@H](O)C[C@](O)(C(=O)OC)[C@@H]1Cc2c(oc3cc(C)cc(O)c3c2=O)S1` [oxalicumone A, oxalicumones A], in data set [3], the IC50 was under 10 µM.
For the molecule `O=C(O)CCCCCCc1cc(=O)c2c(O)cc(O)cc2o1` [Compound 10, penithochromone A], the “Antioxidant % Inhibition (1000 μM)” value in data set [1] was found to be 21.8%. In data set [2], the inhibition at 667 µM stood at 74.7% and it took 268 ± 25 µM to reach half-maximal inhibition (IC50).
Turning to `COc1cc(O)c2c(=O)cc(CCCCCCC(=O)O)oc2c1` [Compound 9, penithochromone C], the “Antioxidant % Inhibition (1000 μM)” value in data set [1] is recorded as 18.1%. Besides, in data set [2], the inhibition at 667 µM was determined as 40.2% and the half-maximal inhibitory concentration (IC50) worked out at 688 ± 24 µM.
